According to patent publication US20240116985A1, “STAPLED PEPTIDES AND METHODS THEREOF” (priority 2020, published 2024):
In brackets after ≈: the same amount, converted by molar mass. Like-named read-outs stand apart in the source and are kept apart here.

Key:
Solubility in PBS = assay type: physicochemical
In short: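 PBS sample ultracentrifuged; supernatant run on HPLC vs. 50 μM peptide in DMSO standard. Solubility = (PBS peak area / DMSO peak area) × 50 uM.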

CHI Log D procedure = assay type: physicochemical; details: for CHI Log D: pH 7.4; for logD / chromatographic logD: pH 7.4, CHI Log D

SMILES	Solubility (Solubility in PBS) [µM]	CHI Log D (CHI Log D procedure)	other results
CC(=O)N1CCC[C@]12CC=CCCCC1(CCCC=CCCCCCC[C@@](C)(C(=O)N[C@@H](Cc3cn(C)cn3)C(=O)N[C@@H](Cc3csc4ccccc34)C(=O)N[C@@H](CCC(N)=O)C(N)=O)NC(=O)[C@H](CC(N)=O)NC(=O)[C@H](Cc3ccccc3)NC(=O)[C@H](C)NC(=O)[C@H](C)NC(=O)[C@H](CCC(=O)O)NC(=O)[C@H](CC(=O)O)NC1=O)NC(=O)[C@H](C)NC(=O)[C@H](CC(=O)O)NC2=O (stereo partly drawn) [I-439, Ac-PL3-Asp-Ala-B5-Asp-Glu-Ala-Ala-Phe-Asn-S8-1meH-BztA-Gln-NH2]	50 (≈ 91.6 µg/mL)	1.408	–
CC(=O)N1CCC[C@]12CC=CCCCC1(CCCC=CCCCCCC[C@@](C)(C(=O)N[C@@H](Cc3ccc(C(N)=O)cc3)C(=O)N[C@@H](Cc3csc4ccccc34)C(=O)N[C@@H](CCC(N)=O)C(N)=O)NC(=O)[C@H](C(C)C)NC(=O)[C@H](Cc3ccccc3)NC(=O)[C@H](C)NC(=O)[C@H](C)NC(=O)[C@H](CC(=O)O)NC(=O)[C@H](CC(=O)O)NC1=O)NC(=O)[C@H](C)NC(=O)[C@H](CC(=O)O)NC2=O (stereo partly drawn) [I-338, Ac-PL3-Asp-Ala-B5-Asp-Asp-Ala-Ala-Phe-Val-S8-4CBMF-BztA-Gln-NH2]	47 (≈ 86.5 µg/mL)	1.586	–
CC(=O)N1CCC[C@]12CC=CCCCC1(CCCC=CCCCOC(=O)N3CC[C@@](C(=O)N[C@@H](Cc4ccsc4)C(=O)N[C@@H](Cc4csc5ccccc45)C(=O)N[C@@H](CCC(N)=O)C(=O)N[C@H](C)C(=O)N[C@H](C)C(=O)N[C@H](C)C(N)=O)(C3)NC(=O)[C@H](CC(N)=O)NC(=O)[C@H](Cc3ccccc3)NC(=O)[C@H](C)NC(=O)[C@H](C)NC(=O)[C@H](CC(=O)O)NC(=O)[C@H](CC(=O)O)NC1=O)NC(=O)[C@H](CC(C)(C)C)NC(=O)[C@H](CC(=O)O)NC2=O (stereo partly drawn) [I-872, Ac-PL3-Asp-Npg-B5-Asp-Asp-Ala-Ala-Phe-Asn-PyrS2-3Thi-BztA-Gln-dAla-dAla]	50 (≈ 107 µg/mL)	–	logD (CHI Log D procedure): 1.89
CC(=O)N1CCC[C@]12CC=CCCCC1(CCCC=CCCCCCC[C@@](C)(C(=O)N[C@@H](Cc3ccccc3)C(=O)N[C@@H](Cc3c[nH]c4ccccc34)C(=O)N[C@@H](CCC(N)=O)C(N)=O)NC(=O)[C@H](C(C)C)NC(=O)[C@H](Cc3ccccc3)NC(=O)[C@H](C)NC(=O)[C@H](C)NC(=O)[C@H](Cc3cccc(F)c3)NC(=O)[C@H](CC(=O)O)NC1=O)NC(=O)[C@H](C)NC(=O)[C@H](CC(=O)O)NC2=O (stereo partly drawn) [I-257, Ac-PL3-Asp-Ala-B5-Asp-3FF-Ala-Ala-Phe-Val-S8-Phe-Trp-Gln-NH2]	10 (≈ 18.3 µg/mL)	–	chromatographic logD (CHI Log D procedure): 2.91
CC(=O)N1CCC[C@]12CC=CCCCC1(CCCC=CCCCCCC[C@@](C)(C(=O)N[C@@H](Cc3cn(C)cn3)C(=O)N[C@@H](Cc3csc4ccccc34)C(=O)N[C@@H](CCC(N)=O)C(N)=O)NC(=O)[C@H](CC(N)=O)NC(=O)[C@H](Cc3ccccc3)NC(=O)[C@H](C)NC(=O)[C@H](C)NC(=O)[C@H](CCC(=O)O)NC(=O)[C@H](CC(=O)O)NC1=O)NC(=O)[C@H](C)NC(=O)[C@H](CC(=O)O)NC2=O (stereo partly drawn) [I-440, Ac-PL3-Asp-Ala-B5-Asp-Glu-Ala-Ala-Phe-Asn-S8-1meH-BztA-Gln-NH2]	50 (≈ 91.6 µg/mL)	1.613	–
CC(=O)N1CCC[C@]12CC=CCCCC1(CCCC=CCCCOC(=O)N3CC[C@@](C(=O)N[C@@H](Cc4ccsc4)C(=O)N[C@@H](Cc4csc5ccccc45)C(=O)N[C@@H](CCC(N)=O)C(=O)N[C@H](C)C(=O)N[C@@H](C)C(=O)N[C@@H](C)C(N)=O)(C3)NC(=O)[C@H](CC(N)=O)NC(=O)[C@H](Cc3ccccc3)NC(=O)[C@H](C)NC(=O)[C@H](C)NC(=O)[C@H](CC(=O)O)NC(=O)[C@H](CC(=O)O)NC1=O)NC(=O)[C@H](CC(C)(C)C)NC(=O)[C@H](CC(=O)O)NC2=O (stereo partly drawn) [I-871, Ac-PL3-Asp-Npg-B5-Asp-Asp-Ala-Ala-Phe-Asn-PyrS2-3Thi-BztA-Gln-dAla-Ala]	–	–	Solubility (Solubility in PBS; Solubility (uM)): 45 µM (≈ 95.9 µg/mL); logD (CHI Log D procedure): 1.92
CC(=O)N1CCC[C@]12CC=CCCCC1(CCCC=CCCCCCC[C@@](C)(C(=O)N[C@@H](Cc3ccccc3)C(=O)N[C@@H](Cc3c[nH]c4ccccc34)C(=O)N[C@@H](CCC(N)=O)C(N)=O)NC(=O)[C@H](C(C)C)NC(=O)[C@H](Cc3ccccc3)NC(=O)[C@H](C)NC(=O)[C@H](C)NC(=O)[C@H](CC(=O)O)NC(=O)[C@H](C)NC1=O)NC(=O)[C@H](C)NC(=O)[C@H](CC(=O)O)NC2=O (stereo partly drawn) [I-350, Ac-PL3-Asp-Ala-B5-Ala-Asp-Ala-Ala-Phe-Val-S8-Phe-Trp-Gln-NH2]	48 (≈ 83.4 µg/mL)	2.887	–
CC[C@H](C)[C@@H]1NC(=O)[C@H](Cc2ccccc2)NC(=O)[C@]2(CC=CCCCC3(CCCC=CCCCCCC[C@@](C)(C(=O)N[C@@H](Cc4ccccc4)C(=O)N[C@@H](Cc4csc5ccccc45)C(=O)N[C@@H](CCC(N)=O)C(N)=O)NC(=O)[C@H](CCC(N)=O)NC(=O)[C@H](CC(=O)O)NC(=O)[C@H](C)NC(=O)[C@H](C)NC(=O)[C@H](CCC(=O)O)NC(=O)[C@H](CC(=O)O)NC3=O)NC1=O)CCCN2C(C)=O (stereo partly drawn) [I-588, Ac-PL3-Phe-Ile-B5-Asp-Glu-Ala-Ala-Asp-Gln-S8-Phe-BztA-Gln-NH2]	–	–	solubility at 15 min (Solubility in PBS; Solubility (uM)): 49 µM (≈ 92.3 µg/mL); chromatographic logD (CHI Log D procedure): 2.87
CC(=O)N1CCC[C@]12CC=CCCCC1(CCCC=CCCCCCC[C@@](C)(C(=O)N[C@@H](Cc3ccccc3)C(=O)N[C@@H](Cc3csc4ccccc34)C(=O)N[C@@H](CCC(N)=O)C(N)=O)NC(=O)[C@H](CC(N)=O)NC(=O)[C@H](Cc3ccccc3)NC(=O)[C@H](C)NC(=O)[C@H](C)NC(=O)[C@H](CCC(=O)O)NC(=O)[C@H](CCNS(C)(=O)=O)NC1=O)NC(=O)[C@H](C)NC(=O)[C@H](CC(=O)O)NC2=O (stereo partly drawn) [I-532, Ac-PL3-Asp-Ala-B5-[MeSO2]Dab-Glu-Ala-Ala-Phe-Asn-S8-Phe-BztA-Gln-NH2]	42 (≈ 79.4 µg/mL)	2.858	–

More lines, main results first:

Solubility (Solubility in PBS) [µM]	CHI Log D (CHI Log D procedure)	SMILES	other results
43 (≈ 81.3 µg/mL)	2.794	CC(=O)N1CCC[C@]12CC=CCCCC1(CCCC=CCCCCCC[C@@](C)(C(=O)N[C@@H](Cc3ccccc3)C(=O)N[C@@H](Cc3csc4ccccc34)C(=O)N[C@@H](CCC(N)=O)C(N)=O)NC(=O)[C@H](CC(N)=O)NC(=O)[C@H](Cc3ccccc3)NC(=O)[C@H](C)NC(=O)[C@H](C)NC(=O)[C@H](CCC(=O)O)NC(=O)[C@H](CCNS(C)(=O)=O)NC1=O)NC(=O)[C@H](C)NC(=O)[C@H](CC(=O)O)NC2=O (stereo partly drawn) [I-531, Ac-PL3-Asp-Ala-B5-[MeSO2]Dab-Glu-Ala-Ala-Phe-Asn-S8-Phe-BztA-Gln-NH2]	–
47 (≈ 85.2 µg/mL)	2.14	CC(=O)N1CCC[C@]12CC=CCCCC1(CCCC=CCCCCCC[C@@](C)(C(=O)N[C@@H](Cc3ccccc3)C(=O)N[C@@H](Cc3csc4ccccc34)C(=O)N[C@@H](CCC(N)=O)C(N)=O)NC(=O)[C@H](C(C)C)NC(=O)[C@H](Cc3ccccn3)NC(=O)[C@H](C)NC(=O)[C@H](C)NC(=O)[C@H](CCC(=O)O)NC(=O)[C@H](CC(=O)O)NC1=O)NC(=O)[C@H](C)NC(=O)[C@H](CC(=O)O)NC2=O (stereo partly drawn) [I-386, Ac-PL3-Asp-Ala-B5-Asp-Glu-Ala-Ala-2pyrA-Val-S8-Phe-BztA-Gln-NH2]	–
36 (≈ 65.3 µg/mL)	1.859	CC(=O)N1CCC[C@]12CC=CCCCC1(CCCC=CCCCCCC[C@@](C)(C(=O)N[C@@H](Cc3ccccn3)C(=O)N[C@@H](Cc3csc4ccccc34)C(=O)N[C@@H](CCC(N)=O)C(N)=O)NC(=O)[C@H](C(C)C)NC(=O)[C@H](Cc3ccccc3)NC(=O)[C@H](C)NC(=O)[C@H](C)NC(=O)[C@H](CCC(=O)O)NC(=O)[C@H](CC(=O)O)NC1=O)NC(=O)[C@H](C)NC(=O)[C@H](CC(=O)O)NC2=O (stereo partly drawn) [I-383, Ac-PL3-Asp-Ala-B5-Asp-Glu-Ala-Ala-Phe-Val-S8-2pyrA-BztA-Gln-NH2]	–
44 (≈ 82.1 µg/mL)	2.058	CC(=O)N1CCC[C@]12CC=CCCCC1(CCCC=CCCCCCC[C@@](C)(C(=O)N[C@@H](Cc3ccccc3)C(=O)N[C@@H](Cc3csc4ccccc34)C(=O)N[C@@H](CCC(N)=O)C(N)=O)NC(=O)[C@H](CCC(N)=O)NC(=O)[C@H](Cc3ccccc3)NC(=O)[C@H](C)NC(=O)[C@H](C)NC(=O)[C@H](CCC(=O)O)NC(=O)[C@H](CC(=O)O)NC1=O)NC(=O)[C@H](C)NC(=O)[C@H](Cc1nn[nH]n1)NC2=O (stereo partly drawn) [I-416, Ac-PL3-tetz-Ala-B5-Asp-Glu-Ala-Ala-Phe-Gln-S8-Phe-BztA-Gln-NH2]	–
10 (≈ 25.6 µg/mL)	–	CC(=O)N1CCC[C@]12CC=CCCCC1(CCCC=CCCCOC(=O)N3CC[C@@](C(=O)N[C@@H](Cc4ccsc4)C(=O)N[C@@H](Cc4csc5ccccc45)C(=O)N[C@@H](CCC(N)=O)C(N)=O)(C3)NC(=O)[C@H](Cc3ccccc3)NC(=O)[C@H](Cc3ccccc3)NC(=O)[C@H](C)NC(=O)[C@H](CCCCNC(=O)c3ccc(-n4cc(CNC(=O)c5ccc6c(c5)C5(OC6=O)c6ccc(O)cc6Oc6cc(O)ccc65)nn4)cc3)NC(=O)[C@H](CC(C)C)NC(=O)[C@H](CC(=O)O)NC1=O)NC(=O)[C@H](CC(C)(C)C)NC(=O)[C@H](CC(=O)O)NC2=O (stereo partly drawn) [I-869, Ac-PL3-Asp-Npg-B5-Asp-Leu-[FAM6Ppg][p1TB]Lys-Ala-Phe-Phe-PyrS2-3Thi-BztA-Gln-NH2]	logD (CHI Log D procedure): 1.91
50 (≈ 104 µg/mL)	–	CC(=O)N1CCC[C@]12CC=CCCCC1(CCCC=CCCCCCC[C@@](C)(C(=O)N[C@@H](Cc3ccsc3)C(=O)N[C@@H](Cc3csc4ccccc34)C(=O)N[C@@H](CCC(N)=O)C(=O)N[C@H](C)C(=O)N[C@H](C)C(=O)N[C@H](C)C(N)=O)NC(=O)[C@H](CC(N)=O)NC(=O)[C@H](Cc3ccccc3)NC(=O)[C@H](C)NC(=O)[C@H](C)NC(=O)[C@H](CC(=O)O)NC(=O)[C@H](CC(=O)O)NC1=O)NC(=O)[C@H](CC(C)(C)C)NC(=O)[C@H](CC(=O)O)NC2=O (stereo partly drawn) [I-876, Ac-PL3-Asp-Npg-B5-Asp-Asp-Ala-Ala-Phe-Asn-S8-3Thi-BztA-Gln-dAla-dAla]	logD (CHI Log D procedure): 2.26
50 (≈ 89.1 µg/mL)	2.048	CC(=O)N1CCC[C@]12CC=CCCCC1(CCCC=CCCCCCC[C@@](C)(C(=O)N[C@@H](Cc3ccccc3)C(=O)N[C@@H](Cc3csc4ccccc34)C(N)=O)NC(=O)[C@H](CC(N)=O)NC(=O)[C@H](Cc3ccccc3)NC(=O)[C@H](C)NC(=O)[C@H](C)NC(=O)[C@H](CCC(=O)O)NC(=O)[C@H](CC(=O)O)NC1=O)NC(=O)[C@H](CC1CCCCC1)NC(=O)[C@H](CC(=O)O)NC2=O (stereo partly drawn) [I-626, Ac-PL3-Asp-Cha-B5-Asp-Glu-Ala-Ala-Phe-Asn-S8-Phe-BztA-NH2]	–
